# What was measured:
# Format in all cases: in vivo
# [1] = test system: ABUTH Abutilon theophrasti; assay: Post-emergence crop and weed test (Example 15); conditions: 360 h, 8 g/ha, after 15 days, read-out: Percentage damage ABUTH
# Experimental: (§1) Seeds of crop and representative weed species were sown in standard soil in pots. After cultivation for 14 days under controlled conditions in a glasshouse (at 22/16° C., day/night; 16 hours light; 65% humidity), the plants were sprayed. The spray solution was prepared by dissolving the technical active ingredient in acetone containing 10.56 wt % Emulsogen EL, 42.22 wt % N-methylpyrrolidone and 2.22 wt % DPG-monoethyl ether to give a 5% stock solution. This was then diluted with water containing 0.2% (v/v) of the adjuvant X-77 to give the desired treatment concentration.
# (§2) The test plants were then grown on under controlled conditions in a glasshouse (at 22/16° C., day/night; 16 hours light; 65% humidity) and watered twice daily. After 15 days the test was evaluated (100 =total damage to plant; 0 =no damage to plant).
# [2] = test system: AMARE Amaranthus retroflexus; assay: Post-emergence crop and weed test (Example 15); conditions: 360 h, 8 g/ha, after 15 days, read-out: Percentage damage AMARE
# Experimental: as §1, §2
# [3] = test system: CHEAL Chenopodium album; assay: Post-emergence crop and weed test (Example 15); conditions: 360 h, 8 g/ha, after 15 days, read-out: Percentage damage CHEAL
# Experimental: as §1, §2
# [4] = test system: EPHHL Euphorbia heterophylla; assay: Post-emergence crop and weed test (Example 15); conditions: 360 h, 8 g/ha, after 15 days, read-out: Percentage damage EPHHL
# Experimental: as §1, §2
# [5] = test system: GLXMA Soybean; assay: Post-emergence crop and weed test (Example 15); conditions: Glycine max, 360 h, 8 g/ha, after 15 days, read-out: Percentage damage GLXMA
# Experimental: as §1, §2
# [6] = test system: KCHSC Kochia scoparia; assay: Post-emergence crop and weed test (Example 15); conditions: Bassia scoparia, 360 h, 8 g/ha, after 15 days, read-out: Percentage damage KCHSC
# Experimental: as §1, §2
# [7] = test system: POLCO Polygonum convolvulus; assay: Post-emergence crop and weed test (Example 15); conditions: Fallopia convolvulus, 360 h, 8 g/ha, after 15 days, read-out: Percentage damage POLCO
# Experimental: as §1, §2
# [8] = test system: SIDSP Sida spinosa; assay: Post-emergence crop and weed test (Example 15); conditions: 360 h, 8 g/ha, after 15 days, read-out: Percentage damage SIDSP
# Experimental: as §1, §2
# [9] = test system: SINAR Sinapis arvensis; assay: Post-emergence crop and weed test (Example 15); conditions: Mutarda arvensis, 360 h, 8 g/ha, after 15 days, read-out: Percentage damage SINAR
# Experimental: as §1, §2
# [10] = test system: VERPE Veronica persica; assay: Post-emergence crop and weed test (Example 15); conditions: 360 h, 8 g/ha, after 15 days, read-out: Percentage damage VERPE
# Experimental: as §1, §2
# [11] = test system: XANST Xanthium strumarium; assay: Post-emergence crop and weed test (Example 15); conditions: 360 h, 8 g/ha, after 15 days, read-out: Percentage damage XANST
# Experimental: as §1, §2
# [12] = test system: ABUTH Abutilon theophrasti; assay: Pre-emergence crop and weed test (Example 16); conditions: after 20 days
# Experimental: as §1, with “1 day” for “14 days”
# (§3) The test plants were then grown on under controlled conditions in a glasshouse (at 22/16° C., day/night; 16 hours light; 65% humidity) and watered twice daily. After 20 days the test was evaluated (100=total damage to plant; 0=no damage to plant).
# (§4) Species as for Post-Emergence Test.
# [13] = test system: AMARE Amaranthus retroflexus; assay: Pre-emergence crop and weed test (Example 16); conditions: after 20 days
# Experimental: as §1, with “1 day” for “14 days”
# as §3, §4
# [14] = test system: CHEAL Chenopodium album; assay: Pre-emergence crop and weed test (Example 16); conditions: after 20 days
# Experimental: as §1, with “1 day” for “14 days”
# as §3, §4
# [15] = test system: EPHHL Euphorbia heterophylla; assay: Pre-emergence crop and weed test (Example 16); conditions: after 20 days
# Experimental: as §1, with “1 day” for “14 days”
# as §3, §4
# [16] = test system: GLXMA Soybean; assay: Pre-emergence crop and weed test (Example 16); conditions: after 20 days
# Experimental: as §1, with “1 day” for “14 days”
# as §3, §4
# [17] = test system: IPOHE Ipomoea hederacea; assay: Pre-emergence crop and weed test (Example 16); conditions: after 20 days
# Experimental: as §1, with “1 day” for “14 days”
# as §3, §4
# [18] = test system: KCHSC Kochia scoparia; assay: Pre-emergence crop and weed test (Example 16); conditions: after 20 days
# Experimental: as §1, with “1 day” for “14 days”
# as §3, §4
# [19] = test system: POLCO Polygonum convolvulus; assay: Pre-emergence crop and weed test (Example 16); conditions: after 20 days
# Experimental: as §1, with “1 day” for “14 days”
# as §3, §4
# [20] = test system: SIDSP Sida spinosa; assay: Pre-emergence crop and weed test (Example 16); conditions: after 20 days
# Experimental: as §1, with “1 day” for “14 days”
# as §3, §4
# [21] = test system: SINAR Sinapis arvensis; assay: Pre-emergence crop and weed test (Example 16); conditions: after 20 days
# Experimental: as §1, with “1 day” for “14 days”
# as §3, §4
# [22] = test system: XANST Xanthium strumarium; assay: Pre-emergence crop and weed test (Example 16); conditions: after 20 days
# Experimental: as §1, with “1 day” for “14 days”
# as §3, §4
# [23] = test system: IPOHE Ipomoea hederacea; assay: Post-emergence crop and weed test (Example 15); conditions: 360 h, 8 g/ha, after 15 days, read-out: Percentage damage IPOHE
# Experimental: as §1, §2
# [24] = test system: GALAP Galium aparine; assay: Pre-emergence crop and weed test (Example 16); conditions: 15 g/ha, after 20 days
# Experimental: as §1, with “1 day” for “14 days”
# as §3, §4
smiles,measurement,setting,value
"C=Cc1c(N)nc(-c2ccc(Cl)c(OC)c2F)nc1C(=O)O [Compound 11, 4-amino-2-(4-chloro-2-fluoro-3-methoxyphenyl) -5-ethenylpyrimidine-6-carboxylic acid]",pest or weed control at 8 g/ha,[1],90%
same,pest or weed control at 8 g/ha,[2],60%
same,pest or weed control at 8 g/ha,[3],80%
same,pest or weed control at 8 g/ha,[4],90%
same,plant injury at 8 g/ha,[5],0%
same,pest or weed control at 8 g/ha,[6],10%
same,pest or weed control at 8 g/ha,[7],70%
same,pest or weed control at 8 g/ha,[8],80%
same,pest or weed control at 8 g/ha,[9],0%
same,pest or weed control at 8 g/ha,[10],80%
same,pest or weed control at 8 g/ha,[11],90%
same,Percentage damage ABUTH,[12]; 250 g/ha,100%
same,Percentage damage AMARE,[13]; 250 g/ha,100%
same,Percentage damage CHEAL,[14]; 250 g/ha,100%
same,Percentage damage EPHHL,[15]; 250 g/ha,100%
same,Percentage damage GLXMA,[16]; 250 g/ha,0%
same,Percentage damage IPOHE,[17]; 250 g/ha,100%
same,Percentage damage KCHSC,[18]; 250 g/ha,100%
same,Percentage damage POLCO,[19]; 250 g/ha,20%
same,Percentage damage SIDSP,[20]; 250 g/ha,100%
same,Percentage damage SINAR,[21]; 250 g/ha,70%
same,Percentage damage XANST,[22]; 250 g/ha,70%
"COC(=O)c1nc(-c2ccc(Cl)c(OC)c2F)nc(N)c1Cl [Ref. Ex. B, 4-Amino-5-chloro-2-(4-chloro-2-fluoro-3-methoxyphenyl)-6-methoxycarbonyl-pyrimidine, reference compound]",pest or weed control at 8 g/ha,[1],90%
same,pest or weed control at 8 g/ha,[2],100%
same,pest or weed control at 8 g/ha,[3],80%
same,pest or weed control at 8 g/ha,[4],100%
same,plant injury at 8 g/ha,[5],90%
same,pest or weed control at 8 g/ha,[23],80%
same,pest or weed control at 8 g/ha,[7],80%
same,pest or weed control at 8 g/ha,[8],70%
same,pest or weed control at 8 g/ha,[9],80%
same,pest or weed control at 8 g/ha,[10],80%
same,pest or weed control at 8 g/ha,[11],100%
same,Percentage damage ABUTH,[12]; 15 g/ha,30%
same,Percentage damage AMARE,[13]; 15 g/ha,70%
same,Percentage damage CHEAL,[14]; 15 g/ha,30%
same,Percentage damage EPHHL,[15]; 15 g/ha,80%
same,Percentage damage GALAP,[24],70%
same,Percentage damage GLXMA,[16]; 15 g/ha,90%
same,Percentage damage IPOHE,[17]; 15 g/ha,0%
same,Percentage damage KCHSC,[18]; 15 g/ha,0%
same,Percentage damage POLCO,[19]; 15 g/ha,0%
same,Percentage damage SIDSP,[20]; 15 g/ha,40%
same,Percentage damage SINAR,[21]; 15 g/ha,80%
same,Percentage damage XANST,[22]; 15 g/ha,0%

# — patent US20120115724A1, “METHOD OF CONTROLLING UNDESIRED VEGETATION” (SYNGENTA CROP PROTECTION LLC, priority 2009, published 2012)
